Assay results taken from PubChem BioAssay AID1959 (Broad Institute, 2009).
The source made the active and inactive calls.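 The calls were made as follows: active = growth-inhibition EC50 no more than tenfold above the top tested dose; inconclusive = flat fit between 30% and 70% inhibition, or unreliable fit; inactive = EC50 more than tenfold above the top tested dose.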

Test system: E. coli NEB5alpha growth, BacTiter-Glo luminescence, 4 h
Test: antibacterial activity against E. coli NEB5alpha – luminescence, counter-screen for MEX-5/POS-1 RNA-binding inhibitor project, dose response (AID 1959);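 also: pUC19-transformed ampicillin-resistant cells grown in LB with ampicillin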

Row | Compound | EC50
1 | Nc1cccc2c1C(=O)N(Cc1nnc(-c3ccccc3Br)o1)C2=O | > 11 µM (inactive)
2 | COc1cccc(/C=C2\SC(=S)N(CCCC(=O)NC3=NCCS3)C2=O)c1 | > 11 µM (inactive)
3 | O=C(O[C@@H]1Cc2c(O)cc(O)cc2O[C@@H]1c1cc(O)c(O)c(O)c1)c1cc(O)c(O)c(O)c1 | > 11 µM (inactive)
4 | CN1CCc2cccc3c2C1Cc1ccc(O)c(O)c1-3 (stereo not given) | > 11 µM (inactive)
5 | CCCCc1cn([C@@H](CCCCN)C(=O)N2CCNCC2)nn1 | > 11 µM (inactive)
6 | CCN(CC)c1ccc(/C=C/C(=O)c2ccc(Br)cc2)cc1 | > 11 µM (inactive)
7 | O=C(O)c1cc(-c2ccc(/C=N/Nc3ccc([N+](=O)[O-])cn3)o2)ccc1Cl | > 11 µM (inactive)
8 | COc1ccc(N2C(=O)NC(=O)/C(=C\c3cn(CC(=O)N4CCOCC4)c4ccccc34)C2=O)c(OC)c1 | > 11 µM (inactive)
9 | CCCCOc1c(Br)cc(/C=N/O)cc1OCC | > 11 µM (inactive)
10 | Nc1ccc2nc3c(=O)[nH]c(=S)[nH]c3nc2c1 | > 11 µM (inactive)
11 | ClCc1nc2ccccc2n1Cc1ccccc1 | > 11 µM (inactive)
12 | COc1ccc(/C=C/c2nc3sc4c(c3c(=O)o2)CCC4)cc1 | > 11 µM (inactive)
13 | CC1CN(c2nc3ccccc3nc2C(C#N)C(=O)NC2CCCCC2)CC(C)O1 (stereo not given) | > 11 µM (inactive)
14 | COc1ccc(N/C=C\C(=O)c2ccc(C)cc2)cc1OC | > 11 µM (inactive)
15 | Oc1ccc(C2=CSC3=NCCN23)cc1O | > 11 µM (inactive)
16 | CN(C)c1ccc(/C=C(\C#N)C(=O)NCc2ccco2)cc1 | > 11 µM (inactive)
17 | C=CCOc1ccc(C2C(C(=O)c3ccco3)=C(O)C(=O)N2c2nnc(C)s2)cc1 (stereo not given) | > 11 µM (inactive)
18 | Cn1c(O)c(/C=C2\C=c3ccccc3=NC2=O)c(=O)n(C)c1=O | > 11 µM (inactive)
19 | CCc1cc(C(=O)Nc2ccc(OC)nc2)sc1C | > 11 µM (inactive)
20 | CCc1ccc(S(=O)(=O)Nc2cc(SCC(=O)O)c(O)c3ccccc23)cc1 | > 11 µM (inactive)
21 | Cc1cc(C(=O)O)ccc1-n1c(C)cc(C=C2C(=O)c3ccccc3C2=O)c1C | > 11 µM (inactive)
22 | CC1(OC(=O)c2cccs2)C(=O)C=C2C=C(c3ccc(C#N)cc3)OC=C2C1=O (stereo not given) | > 11 µM (inactive)
23 | Cn1c(O)c(/C=C2\C=Nc3ccc(Br)cc32)c(=O)n(C)c1=O | > 11 µM (inactive)
24 | COc1cccc(N=Nc2c(=O)[nH]n3c(=O)cc(C)[nH]c23)c1 | > 11 µM (inactive)

Row | Compound | EC50
25 | O=[N+]([O-])c1ccc(N=Nc2ncc[nH]2)cc1 | > 11 µM (inactive)
26 | COc1cc(N=Cc2c(O)c3ccccc3oc2=O)c(OC)cc1Cl | > 11 µM (inactive)
27 | O=c1[nH]c(CSc2ncccn2)nc2c1cnn2-c1ccccc1 | > 11 µM (inactive)
28 | CC1(C)CC(=O)C2=C(C1)OC(/N=C/N1CCOCC1)=C(C#N)C2c1ccccc1 (stereo not given) | > 11 µM (inactive)
29 | CCN1C(=C(C#N)C#N)C=Cc2ccccc21 | > 11 µM (inactive)
30 | CCN1C/C(=C/c2cccs2)c2nc3ccccc3c(C(=O)O)c2C1 | > 11 µM (inactive)
31 | COc1ccc(NC(=O)c2sc3nc(-c4cccnc4)ccc3c2N)cc1 | > 11 µM (inactive)
32 | c1coc(-c2nnc(-c3ccco3)nn2)c1 | > 11 µM (inactive)
33 | COC(=O)c1ccc(-n2c(CCC(=O)O)ccc2-c2ccc(C)cc2)cc1 | > 11 µM (inactive)
34 | COc1ccccc1N1C(=O)S/C(=C\c2ccc(C)s2)C1=O | > 11 µM (inactive)
35 | CCCCn1c(O)c(/C=C2\C=Nc3ccccc32)c(=O)[nH]c1=O | > 11 µM (inactive)
36 | CCc1ccc(/C=C2/SC(=S)N(CCC(=O)Nc3cccnc3)C2=O)cc1 | > 11 µM (inactive)
37 | COc1ccc(C=C2C(=O)OC(C)(C)OC2=O)cc1OC | > 11 µM (inactive)
38 | COCCCNC(=O)C(C#N)c1nc2ccccc2nc1N1CCCC1 (stereo not given) | > 11 µM (inactive)
39 | N#C/C(=C(/O)c1cc2ccccc2o1)c1nc2ccccc2s1 | > 11 µM (inactive)
40 | O=C(NCc1ccccn1)C1Nc2ccc(OC(F)(F)F)cc2C2C=CCC12 (stereo not given) | > 11 µM (inactive)
41 | O=C(NCc1ccccn1)C1Nc2ccc(C(F)(F)F)cc2C2C=CCC12 (stereo not given) | > 11 µM (inactive)
42 | CCOCCCn1c(=NC(=O)c2ccc(OC)c(OC)c2)c(C#N)cc2c(=O)n3cccc(C)c3nc21 | > 11 µM (inactive)
43 | C[C@@H]1O[C@@H](OC2C(O)C(OCCc3ccc(O)c(O)c3)OC(CO)C2OC(=O)/C=C/c2ccc(O)c(O)c2)[C@H](O)[C@H](O)[C@H]1O (stereo not given in full) | > 11 µM (inactive)
44 | Cc1n[nH]c(C)c1Sc1ccccc1N=Cc1cc(Cl)cc([N+](=O)[O-])c1O | > 11 µM (inactive)
45 | Cc1cc(/C=C2\C(=O)NC(=O)N(c3cccc(F)c3)C2=O)c(C)n1-c1ccc(C(=O)O)c(Cl)c1 | > 11 µM (inactive)
46 | NC(=O)C1(N2CCCCC2)CCN(Cc2nc(-c3cccs3)no2)CC1 | > 11 µM (inactive)
47 | NC1=CC(=O)c2cccc3cccc1c23 | > 11 µM (inactive)
48 | Cc1cccc(NC(=O)CN2C(=O)N/C(=C\c3cccn3-c3cccc(C(=O)O)c3)C2=O)c1 | > 11 µM (inactive)

Row | Compound | EC50
49 | Cc1cc(C)cc(N2C(=O)NC(=O)/C(=C\c3cc(C)n(C)c3C)C2=O)c1 | > 11 µM (inactive)
50 | O=C(NCCOc1ccccc1)C1Nc2ccc(OC(F)(F)F)cc2C2C=CCC12 (stereo not given) | > 11 µM (inactive)
51 | CC(C)(C)c1nn(-c2ccccc2)c2[nH]c(=O)c(CNCc3ccco3)cc12 | > 11 µM (inactive)
52 | CN1C(=O)C(=Cc2cn(CC(=O)N3CCCC3)c3ccccc23)C(=O)N(C)C1=O | > 11 µM (inactive)
53 | CCC(=O)OC1(C)C(=O)C=C2C=C(c3ccsc3)OC=C2C1=O (stereo not given) | > 11 µM (inactive)
54 | CC(=O)c1cc(NC(=O)c2ccc(Cl)cc2)c(=O)oc1/C=C/N(C)C | > 11 µM (inactive)
55 | O=C(c1coc(=O)c(Br)c1)N1CCCc2ccccc21 | > 11 µM (inactive)
56 | CCCCC1=CC2=CC(=O)C(C)(OC(=O)CCC(=O)OC)C(=O)C2=CO1 (stereo not given) | > 11 µM (inactive)
57 | CCO/C(C)=N/n1c2nc3ccccc3nc2c2c(=O)n(C3CCCC3)c(C)nc21 | > 11 µM (inactive)
58 | C=CCn1c(=S)[nH]c2nc3c(cc2c1=O)COC(C)(C)C3 | > 11 µM (inactive)
59 | CC(=O)N1CCc2c(sc(NC(=O)C3CCCN3S(=O)(=O)c3cccs3)c2C(N)=O)C1 (stereo not given) | > 11 µM (inactive)
60 | O=C(NCCF)C1Nc2ccc(OC(F)(F)F)cc2C2C=CCC12 (stereo not given) | > 11 µM (inactive)
61 | Cc1[nH][nH]c(=O)c1C(c1ccc(-c2cccc(C(=O)O)c2)o1)c1c(C)[nH][nH]c1=O | > 11 µM (inactive)
62 | O=C(N/N=C\c1cc([N+](=O)[O-])ccc1N1CCCC1)c1ccccn1 | > 11 µM (inactive)
63 | Cc1ccc(-n2[nH]c(C)c(/C=N/NC(=O)c3ccc(O)cc3O)c2=O)cc1 | > 11 µM (inactive)
64 | CCOc1ccc(-c2nn(-c3ccccc3)cc2/C=C2\SC(=S)N(C3CCS(=O)(=O)C3)C2=O)cc1 (stereo not given) | > 11 µM (inactive)
65 | O=C(Nc1cc(=O)[nH]c2ncnn12)c1ccc(Cl)cc1Cl | > 11 µM (inactive)
66 | CCN1CCN(C(=O)c2ccc3c(=O)n(Cc4ccccc4OC)c(=S)[nH]c3c2)CC1 | > 11 µM (inactive)
67 | CCCSc1nnc2nc3c(nn12)c1ccccc1n3C | > 11 µM (inactive)
68 | Cc1ccc(C2C3CN(C(C)C)CC=C3C(C#N)=C(N)C2(C#N)C#N)cc1 (stereo not given) | > 11 µM (inactive)
69 | Oc1ccc(C2C[C@H]3CC[C@@H]2C3)cc1O (stereo not given in full) | > 11 µM (inactive)
70 | CCC(C)n1c(=N)c(C#N)cc2c(=O)n3cccc(C)c3nc21 (stereo not given) | > 11 µM (inactive)
71 | CCN(CC)c1ccc(/C=C2\C(=O)NC(=S)N(C)C2=O)o1 | > 11 µM (inactive)
72 | CC(C)COc1ccc(/C=C2/Sc3ccccc3C2=O)cc1 | > 11 µM (inactive)

Row | Compound | EC50
73 | CN1C[C@H](CO)C=C2c3cccc4[nH]cc(c34)C[C@H]21 | > 11 µM (inactive)
74 | O=C1CSC(=S)N1N1C(=O)c2cccc([N+](=O)[O-])c2C1=O | > 11 µM (inactive)
75 | C=CCN1C(=O)NC(=O)/C(=C/C=C/c2ccccc2)C1=O | > 11 µM (inactive)
76 | CCc1ccc(NC(=O)/C(C#N)=C/c2cc3ccc(C)cc3nc2N2CCOCC2)cc1 | > 11 µM (inactive)
77 | CCOc1ccc2nc3cc(NCc4ccc(OC)cc4)ccc3c(N)c2c1 | > 11 µM (inactive)
78 | COC(=O)CCC(=O)OC1(C)C(=O)C2=CN(CCc3ccccn3)C(c3ccc(OC)cc3)=CC2=C(Br)C1=O (stereo not given) | > 11 µM (inactive)
79 | CC1(OC(=O)c2cccs2)C(=O)C=C2C=C(C3CC3)OC=C2C1=O (stereo not given) | > 11 µM (inactive)
80 | O=C(O)c1ccccc1N(c1ccccc1)c1ccccc1 | > 11 µM (inactive)
81 | CCN1C(=O)/C(=C/c2c(C)nn(C)c2C)SC1=S | > 11 µM (inactive)
82 | COc1cccc(N2C(=O)NC(=O)/C(=C/c3ccc4c(c3)Cc3ccccc3-4)C2=O)c1 | > 11 µM (inactive)
83 | Cc1cccc(NC(=O)/C(C#N)=C\c2cc(C)n(-c3ccc(C(=O)O)cc3)c2C)c1 | > 11 µM (inactive)
84 | C=CCn1ccc(=NC=C(C#N)C#N)c2ccccc21 | > 11 µM (inactive)
85 | COc1ccc(C(=O)Nc2nc(-c3ccc([N+](=O)[O-])cc3)c(-c3ccccc3)s2)cc1 | > 11 µM (inactive)
86 | COC(=O)CNc1cccc(C(F)(F)F)c1 | > 11 µM (inactive)
87 | CNC(=O)c1c(NC(=O)c2ccc(S(=O)(=O)N3CCCc4ccccc43)cc2)sc2c1CCN(C)C2 | > 11 µM (inactive)
88 | C/C(N)=C(/C#N)C(=O)CSc1ncnc2ccccc12 | > 11 µM (inactive)
89 | N#CC(C#N)=Cc1ccc(N2CCOCC2)cc1 | > 11 µM (inactive)
90 | Cc1cc(C)c[n+](-c2[nH]c(=O)sc2/C=N/NC([S-])=Nc2ccccc2)c1 | > 11 µM (inactive)
91 | Cc1c(C(=O)O)cccc1-n1c(C)cc(/C=N/Nc2ccc([N+](=O)[O-])cn2)c1C | > 11 µM (inactive)
92 | O=C(O)c1ccccc1-n1c(-c2ccccc2)cc2c1CCCC2=O | > 11 µM (inactive)
93 | O=C(N/N=C/c1c(O)ccc2ccccc12)Nc1ccccc1 | > 11 µM (inactive)
94 | CC(=O)N(C)c1ccc(N=NC2C(=O)N(C(N)=S)N=C2C)cc1 (stereo not given) | > 11 µM (inactive)
95 | O=C(N/N=C/c1c(O)n(Cc2ccccc2)c(=O)[nH]c1=O)c1ccncc1 | > 11 µM (inactive)
